The text below walks through data of PubChem BioAssay (NCI).

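Interpolation was linear, between the two tested concentrations surrounding the appropriate level; five concentrations were tested over 48 hours in 96-well plates. GI50 marks 50% less growth. TGI is the concentration that stops growth completely.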

The test relates to MDA-MB-468 breast. As to the kind of experiment: growth of human tumour cells (NCI), 48 h.

`N#C[C@@H]1C(n2ccc(N)nc2=O)O[C@H](CO)[C@H]1O` (stereo not given in full): the GI50 is > 73100 nM and the TGI was > 100000 nM.

Take `Cc1cc(N/N=C/c2nc(-c3ccc(Cl)cc3)oc2C)c2cc(Cl)ccc2n1`: the GI50 was 1780 nM and the TGI amounted to 3550 nM.

As for `CN(C)C(=O)O[C@@H]1CN[C@@H](C#Cc2cc3ncnc(Nc4ccc(OCc5cccc(F)c5)c(Cl)c4)c3s2)C1`, the GI50 is 1740 nM and the TGI was 12700 nM.

In the case of `O=C1CCCN1CC#CCN1CCCC1`, the GI50 is > 100000 nM and the TGI was > 100000 nM.

Consider `COc1cc(Cn2c(-c3nonc3N)nc3ccccc32)ccc1C`, for which the GI50 is 228 nM.

Take `COc1ccc(C2CC(n3nnnc3-c3ccccc3)=NN2)cc1` (stereo not given): the GI50 was 3980 nM and the TGI was found to be 47600 nM.

Consider `C/C(=N\NC(N)=S)c1nc2ccc(Cl)cc2[nH]1`, for which the GI50 was 1970 nM and the TGI is 19100 nM.

Regarding `C=C(C)C(=O)O[C@H]1C[C@@]2(C)OC(=CC2=O)/C(C)=C\[C@H]2OC(=O)C(=C)[C@H]12`, the GI50 is 622 nM and the TGI is 1560 nM.

For `Cc1cc(-c2nnc3n2CCCCC3)c(C)n1-c1ccc(Cl)c(Cl)c1`, the GI50 was 2660 nM and the TGI worked out at 14000 nM.

Take `CNC(=O)c1cc(-n2ccc3cc(NC(=O)Nc4ccc(N5CCOCC5)c(C(F)(F)F)c4)ccc32)ccn1`: the GI50 was 12800 nM and the TGI is > 33300 nM.

For the compound `NC(=O)c1ccc(C2C3=C(CCCC3=O)OC3=C2C(=O)c2ccccc2C3=O)cc1` (stereo not given), the GI50 is 201 nM and the TGI stood at 649 nM.

As for `COc1cc(S(C)(=O)=O)ccc1Nc1nc2ccc(-c3ccc(NC(=O)[C@H](C)c4ccc(F)cc4)cc3)cn2n1`, the GI50 was 68600 nM and the TGI was > 100000 nM.

For the compound `CCN(CC)CCCC(C)Nc1c2ccc(C)cc2nc2ccc(OC)cc12` (stereo not given), the GI50 was 1280 nM and the TGI turned out to be 2840 nM.

On to `CC(=O)Nc1ccc(NC(=O)Nc2cccc(-c3nc(-c4ccc(NC(=O)c5cccs5)cc4Cl)no3)c2)cc1C(F)(F)F`, for which the GI50 is 449 nM and the TGI was 1730 nM.

With `CCC(c1cccc(O)c1)C(CC)c1cccc(O)c1` (stereo not given), the GI50 was 28 nM and the TGI came out at 4370 nM.

As for `COC(=O)CCCCCN=Cc1c(O)c(O)c(C(C)C)c2cc(C)c(-c3c(C)cc4c(C(C)C)c(O)c(O)c(C=NCCCCCC(=O)OC)c4c3O)c(O)c12`, the GI50 was 1970 nM and the TGI worked out at 12900 nM.

Turning to `CCOc1c(Cl)cc(CNC(C)C(O)c2ccccc2)cc1OC` (stereo not given), the GI50 was 16700 nM and the TGI worked out at 33200 nM.

Regarding `CCn1c2ccc(/C=N/OCCCN(C)C)cc2c2cc(/C=N/OCCCN(C)C)ccc21`, the GI50 is 1380 nM and the TGI stood at 3050 nM.

As for `COc1cc2nc(-c3ccc(C(F)(F)F)cc3)cc(OCCCN3CCCCC3)c2cc1OC`, the GI50 was 1030 nM and the TGI turned out to be 3290 nM.

`Cc1ccc(NC(=O)Cn2c(Br)nc3c2c(=O)n(C)c(=O)n3C)cc1`: the GI50 is 10100 nM and the TGI was 23200 nM.

As to `CC(C)[C@H]1C(=O)N[C@@H](CCCN=C(N)N)C(=O)NCC(=O)N[C@@H](CC(=O)O)C(=O)N[C@H](Cc2ccccc2)C(=O)N1C`, the GI50 was 403 nM and the TGI amounted to 2180 nM.

With `CC1=C2C(=O)[C@](C)(CO)C=C2C(=O)[C@](C)(O)C12CC2`, the GI50 was 1520 nM and the TGI was found to be 3160 nM.

In the case of `COc1ccc(C(=O)N2c3ccccc3Sc3ccccc32)c(C(F)(F)F)c1`, the GI50 is 364 nM and the TGI was determined as 41500 nM.

Regarding `COc1ccc(-c2cn[nH]c2-c2cc(OC)c3c(c2)OCCO3)cc1`, the GI50 was 115 nM and the TGI was 2760 nM.

As to `COC(=O)CCC1=C(C)/C(=C/c2[nH]c(-c3ccc[nH]3)cc2OC)N=C1C`, the GI50 is 1140 nM and the TGI worked out at 3180 nM.

For the compound `CCC(C)[C@H]1OC(=O)[C@H](C(C)C)N(C)C(=O)[C@@H](C(C)C)OC(=O)[C@H](C(C)C)N(C)C(=O)[C@@H](C(C)CC)OC(=O)[C@H](C(C)C)N(C)C1=O` (stereo not given in full), the GI50 was 440 nM and the TGI is 1350 nM.

On to `CCN(CCNc1ccc(C)c2sc3ccccc3c(=O)c12)CC(C)(C)O`, for which the GI50 is 1740 nM and the TGI amounted to 5030 nM.

Take `O=C1CC(=O)OC(c2ccc([N+](=O)[O-])cc2)O1`: the GI50 is 1670 nM and the TGI amounted to 3480 nM.

Consider `CCCCCCN(CCCCCC)CC(O)c1ccc2c3c(cccc13)CC2` (stereo not given), for which the GI50 is 3430 nM and the TGI amounted to 14400 nM.

On to `CSc1ccc(/C=C2\C=C(CC(=O)NCc3ccc(C(=O)c4ccccc4)cc3)c3cc(F)ccc32)cc1`, for which the GI50 is 19.9 nM and the TGI worked out at 7400 nM.

As to `COc1ccc(CN2c3ccccc3CCc3ccccc32)cc1F`, the GI50 is 399 nM and the TGI is > 100000 nM.

Regarding `Cc1c2ccc(N(C)c3ccnc(Nc4cccc(S(N)(=O)=O)c4)n3)cc2nn1C`, the GI50 was 8210 nM and the TGI was > 23500 nM.

Consider `Cn1cc(CNCC2CCN(c3ncc(C(=O)NO)cn3)CC2)c2ccccc21`, for which the GI50 was < 10 nM and the TGI worked out at 476 nM.
